Laboratory results published in publication PMC4917657, “SP6616 as a new Kv2.1 channel inhibitor efficiently promotes β-cell survival involving both PKC/Erk1/2 and CaM/PI3K/Akt signaling pathways” (Cell Death & Disease, 2016).

System: T1, Kv2.2
T1 construct: gene KCNB2
Assay: channel inhibition in CHO cells transfected with pcDNA3.1a-Kv2.[…] (Supplementary Figure […])
Type: cell-based

IC50: 13.5 µM
SMILES: CCOC(=O)C1=C(C)N=c2sc(=Cc3ccc(O)c(OC)c3)c(=O)n2C1c1ccc(OC)c(OCC)c1 (stereo not shown) [SP6616, ethyl 5-(3-ethoxy-4-methoxyphenyl)-2-(4-hydroxy-3-methoxybenzylidene)-7-methyl-3-oxo-2,3-dihydro-5H-[1,3]thiazolo[3,2–a]pyrimidine-6-carboxylate]
